{
  "source": "paper PMC11358443",
  "about": "“Polymodal K^+ channel modulation contributes to dual analgesic and anti-inflammatory actions of traditional botanical medicines” (Communications Biology, 2024)",
  "key": {"[1]": {"tested_on": "human CD4 T cells", "experiment": "Human CD4 T cell proliferation assay (CFSE dilution, viability dye)", "assay_type": "cell-based", "settings": "96 h", "from_the_text": "Whole blood from de-identified healthy donors, from whom informed consent was obtained, was obtained from the Institute for Clinical and Translational Science (ICTS) research Blood Donor Program at the University of California, Irvine approved and reviewed by the Institutional Review Boards of UCI (IRB protocol HS #2001-2058). All ethical regulations relevant to human research participants were followed. Peripheral blood mononuclear cells (PBMC) were isolated by density gradient separation using lymphocyte separation media (Corning, Cat# 25-072-CV) and SepMate tubes (STEMCELL Technologies, Cat# 85450). Blood was first diluted (1:3) in phosphate-buffered saline (PBS) containing 2% fetal bovine serum (FPS), then overlaid on top of lymphocyte separation media (2:1). CD4+ T cells were isolated from PBMCs using magnetic separation (EasySep Human CD4+ T cell isolation kit, STEMCELL Technologies, Cat# 17952), post isolation purity is typically >95% based on CD4 and CD3 staining. Purified CD4^+ T cells were labeled with 1.6 µM of CellTrace CFSE in AIM V Serum-Free Medium (Gibco Cat# 12055-083) for 8 min[84]. CFSE labeled CD4 T cells were stimulated with anti-CD3- and anti-CD28-coated Dynabeads (Thermo Fisher Scientific, Cat# 111310) at 1:1 ratio in a round-bottom 96-well plate at 37 °C and 5% CO2 in the dark for 96 h in T cell culture medium (RPMI with 10% FCS, L-glutamine, non-essential amino acids, sodium pyruvate, β-mercaptoethanol and penn–strep with amphotericin B). On day 4 cells were stained with Fixable Viability Dye eFluor 780 (FVD-780, Thermo Fisher Scientific, Cat# 65-0865-14) in PBS for 20 min at 4 °C to identify dead cells. Cells were then washed with 1× PBS + 1% FBS twice and transferred to a round-bottom 96-deep well plate (Greiner, Cat# 07-000-119) for flow cytometry. Fluorescence intensity data were acquired using NovoCyte Quanteon (Agilent Technologies) flow cytometer. FSC files were used for gating and analysis using FlowJo analysis software (FlowJo LLC, Ashland, OR). […]"}, "[2]": {"biological_target": "Kv7.5 (Homo sapiens, UniProt Q9NR82)", "sequence (Q9NR82 whole entry)": "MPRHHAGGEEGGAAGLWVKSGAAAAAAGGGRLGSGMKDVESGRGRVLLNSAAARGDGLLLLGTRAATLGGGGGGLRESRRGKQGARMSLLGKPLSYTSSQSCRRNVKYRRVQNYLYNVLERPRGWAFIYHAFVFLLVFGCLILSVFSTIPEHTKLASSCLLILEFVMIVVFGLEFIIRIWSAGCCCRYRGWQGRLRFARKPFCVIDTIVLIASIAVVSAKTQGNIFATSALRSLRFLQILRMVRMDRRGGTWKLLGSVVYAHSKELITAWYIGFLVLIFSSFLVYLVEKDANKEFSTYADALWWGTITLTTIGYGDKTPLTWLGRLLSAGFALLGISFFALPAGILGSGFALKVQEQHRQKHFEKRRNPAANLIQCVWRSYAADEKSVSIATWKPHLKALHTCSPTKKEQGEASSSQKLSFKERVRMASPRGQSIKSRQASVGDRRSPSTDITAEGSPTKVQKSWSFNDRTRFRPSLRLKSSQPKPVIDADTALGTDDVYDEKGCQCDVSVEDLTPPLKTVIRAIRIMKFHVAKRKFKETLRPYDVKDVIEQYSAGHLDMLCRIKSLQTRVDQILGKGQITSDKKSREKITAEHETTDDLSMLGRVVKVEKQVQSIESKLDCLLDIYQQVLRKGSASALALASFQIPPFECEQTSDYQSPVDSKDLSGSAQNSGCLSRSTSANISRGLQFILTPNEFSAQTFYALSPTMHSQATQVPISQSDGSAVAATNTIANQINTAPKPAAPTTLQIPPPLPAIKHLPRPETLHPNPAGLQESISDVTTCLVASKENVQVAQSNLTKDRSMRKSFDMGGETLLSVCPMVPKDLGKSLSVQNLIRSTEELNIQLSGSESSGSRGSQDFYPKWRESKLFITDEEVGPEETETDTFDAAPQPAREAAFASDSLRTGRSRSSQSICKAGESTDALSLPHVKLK", "set-up": "method as in PMID 35997997", "settings": "100 µM; at −80 mV; cited from earlier work"}, "[3]": {"biological_target": "Kv1.3 Mutant 1 (Homo sapiens, UniProt P22001, D423E/G427Q/P424R/S429P/T425E)", "sequence (P22001 whole entry D423E/P424R/T425E/G427Q/S429P)": "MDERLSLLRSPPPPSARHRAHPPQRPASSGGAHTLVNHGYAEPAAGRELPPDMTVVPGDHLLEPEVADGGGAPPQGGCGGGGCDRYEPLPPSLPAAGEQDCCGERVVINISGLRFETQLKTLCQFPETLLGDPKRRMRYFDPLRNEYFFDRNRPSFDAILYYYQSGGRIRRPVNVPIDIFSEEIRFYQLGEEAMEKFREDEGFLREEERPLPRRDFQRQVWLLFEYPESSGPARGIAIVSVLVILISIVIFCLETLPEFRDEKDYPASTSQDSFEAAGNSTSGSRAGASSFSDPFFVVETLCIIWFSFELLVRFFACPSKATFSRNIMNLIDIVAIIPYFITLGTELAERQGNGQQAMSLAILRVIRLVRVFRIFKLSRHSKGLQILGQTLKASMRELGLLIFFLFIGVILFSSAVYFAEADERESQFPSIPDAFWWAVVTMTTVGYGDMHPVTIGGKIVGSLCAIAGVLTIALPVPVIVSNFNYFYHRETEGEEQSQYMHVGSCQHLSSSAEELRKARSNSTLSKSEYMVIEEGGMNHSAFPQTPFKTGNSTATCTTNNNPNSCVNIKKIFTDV", "experiment": "TEVC electrophysiology, oocytes expressing Kv1.3 Mutant 1 (Kv1.2 turret loop residues)", "assay_type": "cell-based", "from_the_text": "To test whether the predicted different binding poses of tannic acid to Kv1.2 and Kv1.3 could explain the contrasting functional effects on these two channels, we made three mutant forms of Kv1.3, introducing Kv1.2 residues into the Kv1.3 turret loop (Mutant 1), pore helix (Mutant 2) and selectivity filter-S6 linker (Mutant 3) (Fig. 9A, B). Mutant 2 was nonfunctional (Fig. 9C); the single residue in this mutant was inaccessible to tannic acid as it was deep inside the pore and was not predicted therefore to interact with tannic acid (Fig. 8).\nWe generated human potassium channel cRNA transcripts with the mMessage mMachine kit (Thermo Fisher Scientific, Waltham, MA, USA) according to manufacturer’s instructions, after vector linearization, from cDNA sub-cloned into expression vectors (pTLNx, pXOOM and pMAX). We injected Xenopus laevis oocytes (Xenoocyte, Dexter, MI, USA) with the channel cRNAs (0.5–10 ng) and incubated the oocytes at 16 °C for 1–4 days prior to electrophysiological recording.\nWe performed TEVC at 20–23 °C with an OC-725C amplifier (Warner Instruments, Hamden, CT, USA) and pClamp10 software. Chemicals for recording and oocyte storage solutions were from Sigma-Aldrich (St. Louis, MO). Bath solution contained (in mM): 96 NaCl, 4 KCl, 1 MgCl2, 1 CaCl2, 10 HEPES (pH 7.6). Pipettes were 1–2 MΩ resistance when filled with 3 M KCl. We recorded currents in response to voltage pulses between −120 mV or −80 mV and +40 mV at 10 mV intervals from a holding potential of −80 mV, to yield current–voltage relationships and examine activation kinetics. We recorded and analyzed data using Clampfit (Molecular Devices, Sunnyvale, CA, USA) and Graphpad Prism software (GraphPad, San Diego, CA, USA), stating values as mean ± SEM. We calculated the voltage dependence of activation (V0.5) by measuring tail currents at a voltage pulse of −30 mV (Kv7) or −50 mV (Kv1), then fitted the tail current/voltage relationship with a single Boltzmann function:1 g=(A1−A2)/{1+exp[V1/2−V/Vs]}y+A2 where g is the normalized tail conductance, A1 is the initial value at −∞, A2 is the final value at +∞, V1/2 is the half-maximal voltage of activation and Vs the slope factor. We fitted activation and deactivation kinetics with single exponential functions.\nFor wild-type and mutant Kv1.3 channels we calculated conductance–voltage curves from current–voltage relationships recorded in response to voltage pulses between −80 mV to +40 mV in 10 mV intervals from a holding potential of −80 mV. The conductance was calculated by subtracting the driving force (EK):2 Ek=xlnK^+i/K^+o"}},
  "note": "“And” between values parts separate entries of the source, which are not always exact repeats. Equal entries are not always repeated.",
  "data": [
    {"substance": "tannic acid", "values": [
      {"measurement": "LD50 (viability dose–response)", "setting": "[1]; mean of 9 donors", "value": 87, "unit": "µM"},
      {"measurement": "IC50 for limiting T cell proliferation (division index)", "setting": "[1]; CD3/CD28 Dynabead stimulation, 10% FCS", "value": "35 µM and 35.03 µM"},
      {"measurement": "cell viability", "setting": "[1]; at 50 µM", "value": "76.96 ± 8.922", "unit": "%"},
      {"measurement": "constitutive activation for Kv7.5", "setting": "[2]", "value": 50, "unit": "%"},
      {"measurement": "Slope", "setting": "[3]; 0.1 µM tannic acid, control 3.97 ± 0.40", "value": "5.16 ± 0.56", "unit": "mV"},
      {"measurement": "Current at 0 (mV)", "setting": "[3]; 0.1 µM tannic acid, control 4.66 ± 1.27", "value": "5.24 ± 0.91"},
      {"measurement": "V0.5 Normalized tail current", "setting": "[3]; 0.1 µM tannic acid, control -14.75 ± 3.06", "value": "-20.05 ± 2.13", "unit": "mV"},
      {"measurement": "Current at 0 (mV)", "setting": "[3]; 1 µM tannic acid", "value": "5.37 ± 0.63"},
      {"measurement": "Slope", "setting": "[3]; 1 µM tannic acid", "value": "4.97 ± 0.53", "unit": "mV"},
      {"measurement": "V0.5 Normalized tail current", "setting": "[3]; 1 µM tannic acid", "value": "-24.05 ± 2.18", "unit": "mV"},
      {"measurement": "Current at 0 (mV)", "setting": "[3]; 3 µM tannic acid", "value": "4.93 ± 0.57"},
      {"measurement": "Slope", "setting": "[3]; 3 µM tannic acid", "value": "5.05 ± 0.28", "unit": "mV"},
      {"measurement": "V0.5 Normalized tail current", "setting": "[3]; 3 µM tannic acid", "value": "-27.01 ± 1.83", "unit": "mV"},
      {"measurement": "Current at 0 (mV)", "setting": "[3]; 10 µM tannic acid", "value": "4.01 ± 0.41"},
      {"measurement": "Slope", "setting": "[3]; 10 µM tannic acid", "value": "5.33 ± 0.20", "unit": "mV"},
      {"measurement": "V0.5 Normalized tail current", "setting": "[3]; 10 µM tannic acid", "value": "-27.63 ± 1.98", "unit": "mV"},
      {"measurement": "Current at 0 (mV)", "setting": "[3]; 30 µM tannic acid", "value": "2.18 ± 0.24"},
      {"measurement": "Slope", "setting": "[3]; 30 µM tannic acid", "value": "5.94 ± 0.30", "unit": "mV"},
      {"measurement": "V0.5 Normalized tail current", "setting": "[3]; 30 µM tannic acid", "value": "-24.82 ± 2.70", "unit": "mV"},
      {"measurement": "Current at 0 (mV)", "setting": "[3]; 100 µM tannic acid", "value": "1.15 ± 0.14"},
      {"measurement": "Slope", "setting": "[3]; 100 µM tannic acid", "value": "6.41 ± 0.42", "unit": "mV"},
      {"measurement": "V0.5 Normalized tail current", "setting": "[3]; 100 µM tannic acid", "value": "-19.79 ± 4.83", "unit": "mV"},
      {"measurement": "reduction of tannic acid sensitivity versus wild-type Kv1.3", "setting": "[3]; inhibition dose response", "value": "threefold"}
    ]}
  ]
}
